Like-named read-outs stand apart in the source and are kept apart here.
Experiments:
Assay type in all cases: cell-based
[1] = test system: murine spleen lymphocytes; test: Cytokine stimulation of murine spleen lymphocytes, ELISA; settings: mouse immune cells (spleen lymphocytes), 24 hrs, ELISA; for EC50: Lymphocyte
Method: The stimulating effect of a series of GY compounds or drugs on murine spleen lymphocytes was detected by ELISA.
6-week-old Balb/c mice were sacrificed by cervical dislocation, spleens were taken under aseptic conditions. A 1 mL sterile syringe and a 200 mesh cell strainer were adopted to quickly grind and disperse the spleen into individual cells in 4 mL of a murine lymphocyte separation solution (Dakko's, 7211011). A resulting cell homogenate was transferred to a 15 mL centrifuge tube, then 1 mL of a RPMI 1640 medium (Hyclone, SH30809.01) was slowly added. Spleen lymphocytes were separated by a density gradient centrifugation method (800×g, 30 min), washed, red blood cells therein were lysed, such that a dispersed spleen lymphocyte suspension was obtained. Cells were counted by a hemocytometer, to calculate the cell concentration. A RPMI 1640 complete medium was adopted to adjust the cell suspension to a concentration of 1×10^6/ml/well, and the cells were then plated on a 24-well cell culture plate (Corning, 3524).
Murine spleen lymphocytes were stimulated according to the gradient concentrations of the series of GY compounds or drugs, and incubated in a 37° C., 5% carbon dioxide incubator for 24 hrs.
• (1) Coating: a Capture antibody (primary antibody, purchased from Invitrogen) was diluted with a 1×Coating Buffer (coating buffer, purchased from Invitrogen) to a recommended concentration, and 100 μL of a resulting diluted solution was added to each well of a 96-well microtiter plate, the plate was sealed with a sealing film at 4° C. overnight. • (2) Washing: a liquid in each well was discarded, then 300 μL of a PBST working solution was added to each well and kept for 1 min, thereafter, the liquid therein was discarded. The washing process was repeated 3 times. • (3) Blocking: 200 μL of a blocking solution was added to each well. The plate was sealed with a sealing film, and placed on a shaker and incubated at room temperature for 1 hr, then washed and patted to be dry. • (4) Sample incubation: a sample was collected and centrifuged to collect a supernatant. Standards, samples, negative controls, and blank controls were provided in the 96-well microtiter plate, and each concentration or sample were provided with 2 replicates. 100 μL of a standard or sample was added to each well, thereafter, the plate was sealed with a sealing film, incubated on a shaker at room temperature for 1 hr or overnight at 4° C., then washed and pated to be dry. • (5) Secondary antibody incubation: the detection antibody (secondary antibody, purchased from Invitrogen) was diluted to a recommended concentration with a dilution buffer, 100 μL of a secondary antibody was added to each well. After being sealed with a sealing film, the plate was incubated on a shaker at room temperature for 1 hr, then washed and patted to be dry. • (6) Avidin-HRP incubation: Avidin-HRP (horseradish peroxidase marker, purchased from Invitrogen) was diluted to the recommended concentration with a dilution buffer, 100 μL of Avidin-HRP was added to each well. After being sealed with a sealing film, the plate was placed on a shaker and incubated at room temperature for 30 mins, washed 5-7 times by the process of step 2), and patted to be dry. • (7) TMB color development: 100 μL of a TMB color development solution (purchased from Invitrogen) was added to each well, for carrying out reaction for 15 mins at room temperature in the dark. • (8) Stopping reaction: 50 μL of 1M H2SO4 solution was added to each well. • (9) Reading an absorbance value by a microplate reader: the OD value at 450 nm wavelength was read. A standard curve and a parameter nonlinear regression equation were drawn, and a sample concentration was calculated according to the obtained formula.

[2] = test system: human lymphoma Daudi B cells; test: CCK8 growth inhibition, Daudi B; settings: CCK8 method, read-out: IC50 of inhibitory activity on tumor cell growth, Daudi B
[3] = test system: human lymphoma Raji cells; test: CCK8 growth inhibition, Raji; settings: CCK8 method, read-out: IC50 of inhibitory activity on tumor cell growth, Raji
[4] = test system: human leukemia HL-60 cells; test: CCK8 growth inhibition, HL60; settings: read-out: IC50 of inhibitory activity on tumor cell growth, HL60
TLR7 = target: T1, TLR7 (Homo sapiens, UniProt Q9NYK1); test: Detection of TLR7 activation (HEK-Blue Detection), SEAP reporter; settings: HEK-Blue hTLR7 cells, 6-16 hrs, absorbance 650 nm; read-out: TLR7(EC50/μM)
T1 construct: host or cells: HEK-Blue hTLR7 cells (HEK293-derived SEAP reporter line)
T1 sequence (Q9NYK1 27-1049): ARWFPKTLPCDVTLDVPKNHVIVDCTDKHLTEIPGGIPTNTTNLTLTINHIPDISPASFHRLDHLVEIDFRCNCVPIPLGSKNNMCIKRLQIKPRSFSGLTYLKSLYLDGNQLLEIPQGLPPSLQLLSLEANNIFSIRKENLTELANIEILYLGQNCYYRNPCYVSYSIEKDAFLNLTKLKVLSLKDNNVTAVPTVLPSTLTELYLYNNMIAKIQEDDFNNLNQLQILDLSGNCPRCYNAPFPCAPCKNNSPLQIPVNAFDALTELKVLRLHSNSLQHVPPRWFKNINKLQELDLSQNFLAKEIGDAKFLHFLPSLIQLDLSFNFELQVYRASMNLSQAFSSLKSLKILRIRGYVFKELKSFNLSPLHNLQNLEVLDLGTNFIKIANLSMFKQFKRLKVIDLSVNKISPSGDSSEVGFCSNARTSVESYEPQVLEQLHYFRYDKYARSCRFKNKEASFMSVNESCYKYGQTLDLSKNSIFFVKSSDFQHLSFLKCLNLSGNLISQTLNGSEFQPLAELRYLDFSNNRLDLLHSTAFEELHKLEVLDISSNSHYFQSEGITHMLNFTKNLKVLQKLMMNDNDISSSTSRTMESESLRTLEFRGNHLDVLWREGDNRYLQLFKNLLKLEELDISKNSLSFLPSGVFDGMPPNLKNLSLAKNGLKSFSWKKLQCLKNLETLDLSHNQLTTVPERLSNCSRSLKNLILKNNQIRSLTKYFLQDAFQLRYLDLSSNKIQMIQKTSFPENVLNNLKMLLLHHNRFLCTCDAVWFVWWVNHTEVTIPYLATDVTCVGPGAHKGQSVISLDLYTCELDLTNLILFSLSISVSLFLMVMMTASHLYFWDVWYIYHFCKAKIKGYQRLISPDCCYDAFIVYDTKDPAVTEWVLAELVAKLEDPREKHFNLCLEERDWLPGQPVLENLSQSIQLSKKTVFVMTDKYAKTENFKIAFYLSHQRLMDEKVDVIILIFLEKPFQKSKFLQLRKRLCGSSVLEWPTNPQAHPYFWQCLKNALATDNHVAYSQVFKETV
Method: HEK-Blue™hTLR7 cells (purchased from InvivoGen) in a logarithmic growth phase were taken, with a growth medium (Gibco, C11995500BT, Invivo Gen, ant-nr) discarded. The cells were gently rinsed twice by an appropriate amount of 37° C. PBS (Hyclone, SH30256.01), a rinsed PBS was discarded. Thereafter, the cells were added with 2-5 mL of 37° C. PBS, incubated for 1 to 2 minutes, and then scraped by a cell scraper and gently pipetted to be dispersed into a single cell suspension. A hemocytometer was adopted to count the cells and a cell concentration was calculated. After that, a HEK-Blue™ Detection solution (purchased from Invivo Gen) was adopted to adjust the cell concentration of the cell suspension to 2.5×10^4/180 μL per well for cell plating on a 96-well cell culture plate. The HEK-Blue™hTLR7 cells were stimulated according to the designed series of GY compound or drug concentrations (0.01 μM, 0.1 μM, 1 μM, 5 μM, 15 μM, and 30 μM), with 3 replicate wells for each concentration, and were incubated at 37° C., 5% carbon dioxide for 6-16 hrs. After the incubation, the absorbance value was read at 650 nm with a full-wavelength microplate reader (BioTek-Epoch), as listed in Table 2.
Relative induction=(average OD value of experimental group−average OD value of negative control group)/average OD value of negative control group.
Specific details for the above method may be referred to https: • //www.invivogen.com/hek-blue-htlr7; https://www.invivogen.com/sites/default/files/invivogen/products/files/hek_blue_htlr7_tds.pdf.

[5] = test system: murine leukemia WEHI-3 cells; test: CCK8 growth inhibition, WEHI-3; settings: Mus musculus, CCK8 method, read-out: IC50 of inhibitory activity on tumor cell growth, WEHI-3
A549 = test: CCK8 growth inhibition, A549; settings: Homo sapiens, CCK8 method, read-out: IC50 of inhibitory activity on tumor cell growth, A549
[6] = test system: Murine breast cancer 4T1 cells; test: CCK8 growth inhibition, 4T1; settings: Mus musculus, CCK8 method, 24 hrs (or 36, 72 hrs), read-out: IC50 of inhibitory activity on tumor cell growth, 4T1
Method: Murine breast cancer 4T1 cells (Kailian Biotech, KG338) in a logarithmic growth phase were selected and washed with PBS, digested with 0.25% trypsin (including EDTA), stopped digestion with a DMEM complete medium, then centrifuged, and resuspended to form a suspension of 4T1 single cells. Cells were counted using a hemocytometer and a cell concentration was calculated. A DMEM complete medium was used to adjust the cell suspension to a target concentration, and thereafter, the cells were plated on a 96-well cell culture plate according to 4×10^3/100 μL per well. After adherering to the wall, the 4T1 cells were stimulated according to the designed concentration gradients of the series of GY compounds or drugs, with each concentration being provided with 3 replicate holes. The 96-well cell culture plate with 4T1 cells seeded and dosing was placed in the cell incubator, and incubated at 37° C., 5% carbon dioxide for 24 hrs (or 36, 72 hrs). After the incubation time was over, 10 μL of CCK8 reagent was added to each well and incubated for 1-2 hrs at 37° C. A full-wavelength microplate reader was adopted to test an OD value at 450 nm wavelength.
CCK8 calculation formula is as follows: • Cell survival rate (100%)=[…]/(Ac−Ab)×100% • As: Absorbance of wells containing cells, CCK8 solution, and drug solution • Ac: Absorbance of wells containing cells and CCK8 solution, and no drug solution • Ab: Absorbance of wells containing CCK8 solution, no cells, and no drug solution
Cell growth inhibition rate (%)=1−((OD value of experimental group−OD value of blank group)/(OD value of control group−OD value of blank group)×100%).

MB231 = test: CCK8 growth inhibition, MB231; settings: CCK8 method; read-out: IC50 of inhibitory activity on tumor cell growth, MB231
HEK293T cells = test: CCK8 growth inhibition, HEK-293T; settings: Homo sapiens, CCK8 method, read-out: IC50 of inhibitory activity on cell growth, HEK-293T
[7] = test system: murine colon cancer CT-26 cells; test: CCK8 growth inhibition, CT26; settings: Mus musculus, CCK8 method, read-out: IC50 of inhibitory activity on tumor cell growth, CT26
[8] = test system: human leukemia K562 cells; test: CCK8 growth inhibition, K562; settings: CCK8 method, read-out: IC50 of inhibitory activity on tumor cell growth, K562
black melanoma B16 cells = test: CCK8 growth inhibition, B16; settings: Mus musculus, CCK8 method, read-out: IC50 of inhibitory activity on tumor cell growth, B16
[9] = read-out: TNF-alpha EC50 of cytokine stimulating activity
[10] = Homo sapiens, HL-60, CCK8 method

SMILES | EC50 [1, 9] [µM] | IFN-gamma EC50 of cytokine stimulating activity [1] | EC50 (TLR7) [µM] | IC50 [5] [µM] | IC50 (A549) [µM] | IC50 [6] [µM] | IC50 [4, 10] [µM] | further results
CCCCOc1nc(N)c2nc(O)n(Cc3cn(CCOCCOCCOCC(=O)Nc4cc(Nc5nccc(-c6cn(C)c7ccccc67)n5)c(OC)cc4N(C)CCN(C)C)nn3)c2n1 [GY104] | 34.7 | No fit |  |  | 17.1 |  |  | EC50 ([1]; read-out: IL-6 EC50 of cytokine stimulating activity): 27.7 µM
CCCCOc1nc(N)c2nc(O)n(Cc3cn(CCOCCOCCOCCN4CCN(CCCNC(=O)CC5N=C(c6ccc(Cl)cc6)c6c(sc(C)c6C)-n6c(C)nnc65)CC4)nn3)c2n1 (stereo not shown) [GY118] |  |  |  |  | 16.6 | 14.7 | 15.1 | IC50 (MB231): 5.8 µM
C=C(CC(=O)NCCOCCOCCOCCn1cc(Cn2c(O)nc3c(N)nc(OCCCC)nc32)nn1)C(=O)N1CCC[C@@H](n2nc(-c3ccc(Oc4ccccc4)cc3)c3c(N)ncnc32)C1 [GY131] |  |  | 4.97 | 7.38 |  | 2.86 | 92.1 | IC50 (HEK293T cells): 25.1 µM; IC50 ([2]; Homo sapiens, Daudi): 14.1 µM; IC50 [7]: 166 µM; IC50 ([3]; Homo sapiens, Raji): 10.4 µM; IC50 [8]: 92.1 µM; IC50 (black melanoma B16 cells): 40.7 µM

More lines, main results first:

EC50 [1, 9] [µM] | IFN-gamma EC50 of cytokine stimulating activity [1] | EC50 (TLR7) [µM] | IC50 [5] [µM] | IC50 (A549) [µM] | IC50 [6] [µM] | IC50 [4, 10] [µM] | SMILES | further results
2.15 | No fit | 5.42 | 14.7 |  |  |  | C=C(CC(=O)NCCOCCOCCOCCn1cc(Cn2c(O)nc3c(N)nc(OCCCC)nc32)nn1)C(=O)N1CCC(C2CCNc3c(C(N)=O)c(-c4ccc(Oc5ccccc5)cc4)nn32)CC1 (single isomer, unassigned) [GY132] | IL-6 EC50 of cytokine stimulating activity [1]: No fit; IC50 [2]: 5.36 µM; IC50 [3]: 2.03 µM; IC50 ([4]; CCK8 method): 5.13 µM
 |  |  | 47.6 |  |  |  | CCCCOc1nc(N)c2nc(O)n(Cc3cn(CCOCCOCCOCC(=O)N4CCN(C/C=C/C(=O)N5CCCC(n6nc(-c7ccc(Oc8ccccc8)cc7)c7c(N)ncnc76)C5)CC4)nn3)c2n1 (stereo not shown) [GY138] | 
 |  |  | 22.3 |  |  |  | C=C(CC(=O)N1CCC(C2CCN=C3C(C(N)=O)=C(c4ccc(Oc5ccccc5)cc4)NN32)CC1)C(=O)NCCOCCOCCOCCn1cc(Cn2c(O)nc3c(N)nc(OCCCC)nc32)nn1 (stereo not shown) [GY150] | 
